For 20 compounds, TGI and GI50 results are on record in PubChem BioAssay (NCI).

Among the test systems are HS 578T breast; UO-31 renal; SF-539 CNS; EKVX NSCLC; PC-3 prostate; SW-620 colon; A498 renal; COLO 205 colon; HT29 colon; HOP-92 NSCLC.
Common to all, as to assay: growth of human tumour cells (NCI), 48 h

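Following 48 hours of exposure in 96-well plates, responses at five concentrations were used to interpolate endpoints linearly. GI50 marks 50% less growth. TGI denotes the concentration required for complete inhibition of growth.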

On to `Cc1ccc(S(=O)(=O)N2CCN(CCO)CCN(S(=O)(=O)c3ccc(C)cc3)CCN(CCO)CC2)cc1`, for which the TGI with HS 578T breast was 93.4 µM; with UO-31 renal it was more than 100 µM; in the assay with SF-539 CNS, 33.4 µM; with EKVX NSCLC, 39.1 µM; in the assay on PC-3 prostate it was more than 100 µM; in the assay with SW-620 colon, more than 100 µM. Moreover, the TGI is 62.7 µM with A498 renal, 33.2 µM in the assay on COLO 205 colon, 26 µM with HT29 colon and 66 µM in the assay with HOP-92 NSCLC.
As to `Cc1nn(-c2ccccn2)c2c1C(SC#N)=C(C=O)CC2`, the TGI in the assay with HS 578T breast was more than 100 µM; in the assay on UO-31 renal it was 29.1 µM; in the assay on SF-539 CNS, 36.1 µM; with EKVX NSCLC it was 36.1 µM; in the assay on PC-3 prostate, 33.8 µM; with SW-620 colon, 59.3 µM. For the same compound, the TGI in the assay with A498 renal worked out at 5.57 µM; with COLO 205 colon, 22.2 µM; in the assay with HT29 colon, 47 µM; in the assay on HOP-92 NSCLC, 34.5 µM.
`O=C(Nc1nc(C23CC4CC(CC(C4)C2)C3)cs1)c1cc2cc([N+](=O)[O-])ccc2oc1=O`: the TGI with HS 578T breast was 67.9 µM; with UO-31 renal it was more than 100 µM; with SF-539 CNS, more than 100 µM; in the assay on EKVX NSCLC, more than 100 µM; in the assay on PC-3 prostate, more than 100 µM; in the assay on SW-620 colon, more than 100 µM. Besides, the TGI in the assay with A498 renal, in the assay on COLO 205 colon, in the assay on HT29 colon and in the assay on HOP-92 NSCLC was more than 100 µM each time.
With `O=S(=O)(O)c1ccc(Nc2ccnc3cc(Cl)ccc23)cc1`, the TGI in the assay on HS 578T breast, with UO-31 renal, in the assay on SF-539 CNS, in the assay with EKVX NSCLC, with PC-3 prostate and in the assay on SW-620 colon was more than 100 µM in each case. Also, the TGI with A498 renal, in the assay on COLO 205 colon, in the assay with HT29 colon and in the assay on HOP-92 NSCLC was more than 100 µM each time.
Regarding `COc1ccc(C2NC(=O)Nc3c2c(=O)oc2c3ccc3ccccc32)cc1` (stereo not given), the TGI in the assay with HS 578T breast is more than 100 µM; in the assay on UO-31 renal it was more than 100 µM; in the assay on SF-539 CNS, more than 100 µM; with EKVX NSCLC it was 96.8 µM; with PC-3 prostate it was more than 100 µM; in the assay on SW-620 colon, more than 100 µM. Besides, the TGI in the assay on A498 renal, in the assay with COLO 205 colon, in the assay with HT29 colon and with HOP-92 NSCLC was more than 100 µM in each case.
For `CCCCCCCCC[n+]1cccc(C2C(C(=O)OCC)=C(C)NC(C)=C2C(=O)OCC)c1`, the TGI was 10.7 µM in the assay on HS 578T breast; 31.6 µM in the assay with UO-31 renal; 15.6 µM in the assay on SF-539 CNS; 27.8 µM in the assay with EKVX NSCLC; 15.2 µM in the assay with PC-3 prostate; 30.5 µM with SW-620 colon. The TGI with A498 renal came out at 38.6 µM; in the assay with COLO 205 colon it was 8.06 µM; with HT29 colon, 11.7 µM; in the assay with HOP-92 NSCLC, 6.52 µM.
Regarding `C=C1C(=O)O[C@H]2[C@H]([C@H](C)CCCC(C)=O)O[C@H]([C@@]3(C)CCC(=O)O3)C[C@@H]12`, the TGI in the assay on HS 578T breast, with UO-31 renal, in the assay with SF-539 CNS, in the assay with EKVX NSCLC, in the assay with PC-3 prostate and with SW-620 colon was more than 100 µM each time. The TGI in the assay on A498 renal, in the assay on COLO 205 colon, with HT29 colon and in the assay on HOP-92 NSCLC was more than 100 µM each time.
As for `COc1ccc(C(C)NNC(=O)c2ccncc2)cc1F` (stereo not given), the TGI with HS 578T breast, in the assay with UO-31 renal, in the assay on SF-539 CNS, in the assay with EKVX NSCLC, with PC-3 prostate and in the assay with SW-620 colon was more than 100 µM in each case. Also, the TGI with A498 renal, in the assay on COLO 205 colon, in the assay on HT29 colon and in the assay on HOP-92 NSCLC was more than 100 µM each time.
Consider `N#Cc1c(C#N)c(-c2ccccc2)n(/N=C\c2ccccc2)c1N`, for which the TGI was 61.3 µM in the assay with HS 578T breast; 81.8 µM in the assay with UO-31 renal; 55.1 µM in the assay with SF-539 CNS; 63.9 µM in the assay on EKVX NSCLC; 49.4 µM in the assay on PC-3 prostate; more than 100 µM in the assay on SW-620 colon. The TGI with A498 renal was found to be 77.4 µM; with COLO 205 colon it was 72 µM; with HT29 colon, 83.1 µM; with HOP-92 NSCLC, 68.4 µM.
Consider `COC1=CC(=O)c2c(cc(COP(=O)(N(C)CCBr)N(C)CCBr)n2C)C1=O`, for which the TGI with HS 578T breast was 5.04 µM; in the assay on UO-31 renal, 2.52 µM; in the assay on SF-539 CNS, 0.339 µM; with EKVX NSCLC, 6.55 µM; in the assay on PC-3 prostate it was more than 83.2 µM; in the assay on SW-620 colon it was 7.58 µM. For the same compound, the TGI in the assay with A498 renal was 6.12 µM; in the assay on COLO 205 colon, 2.56 µM; in the assay on HT29 colon, 1.42 µM; with HOP-92 NSCLC, 7.54 µM.
For the compound `COC(=O)c1c(C#C[Si](C)(C)C)c(C#C[Si](C)(C)C)c(C#C[Si](C)(C)C)c(C#C[Si](C)(C)C)c1C(=O)OC`, the TGI with HS 578T breast, with UO-31 renal, in the assay with SF-539 CNS, in the assay with EKVX NSCLC, in the assay with PC-3 prostate and in the assay on SW-620 colon was more than 100 µM each time. The TGI with A498 renal, with COLO 205 colon, in the assay on HT29 colon and with HOP-92 NSCLC was more than 100 µM in each case.
On to `O=C(NCCCCNCCCNC(=O)OCc1ccccc1)OCc1ccccc1`, for which the TGI in the assay with HS 578T breast was 88.8 µM; in the assay on UO-31 renal, 93.1 µM; in the assay with SF-539 CNS, 43.1 µM; with EKVX NSCLC, more than 100 µM; in the assay with PC-3 prostate, more than 100 µM; in the assay with SW-620 colon it was more than 100 µM. For the same compound, the TGI was 36.8 µM with A498 renal, 33.8 µM in the assay on COLO 205 colon, 37.7 µM in the assay on HT29 colon and 87.3 µM in the assay on HOP-92 NSCLC.
Take `Cc1nnc(CC#N)n1NC(=O)CC#N`: the TGI in the assay on HS 578T breast, in the assay with UO-31 renal, with SF-539 CNS, with EKVX NSCLC, in the assay with PC-3 prostate and with SW-620 colon was more than 100 µM each time. In addition, the TGI in the assay with A498 renal, in the assay with COLO 205 colon, with HT29 colon and with HOP-92 NSCLC was more than 100 µM throughout.
As to `O=C(NCc1ccccc1)c1c(O)c2ccccc2[nH]c1=O`, the TGI in the assay with HS 578T breast, with UO-31 renal, in the assay with SF-539 CNS, in the assay with EKVX NSCLC, in the assay on PC-3 prostate and in the assay on SW-620 colon was more than 100 µM throughout. For the same compound, the TGI in the assay with A498 renal, in the assay on COLO 205 colon, in the assay with HT29 colon and in the assay on HOP-92 NSCLC was more than 100 µM each time.
As for `Cc1ccc2cnc(N)c(C#Cc3cncc(C(=O)Nc4ccc(CN5CCN(C)CC5)c(C(F)(F)F)c4)c3)c2c1`, the GI50 in the assay on HS 578T breast was 0.274 µM; in the assay with UO-31 renal it was 0.589 µM; with SF-539 CNS, 0.275 µM; in the assay with EKVX NSCLC it was 0.317 µM; with PC-3 prostate it was 0.679 µM; with SW-620 colon, 0.131 µM. Moreover, the GI50 with A498 renal was 0.291 µM; in the assay on COLO 205 colon, 0.134 µM; with HT29 colon, 0.106 µM; with HOP-92 NSCLC, 0.0771 µM. Moreover, the TGI worked out at 1.39 µM in the assay on HS 578T breast; 1.22 µM in the assay on UO-31 renal; 0.877 µM with SF-539 CNS; 1.01 µM in the assay with EKVX NSCLC; 1.43 µM in the assay with PC-3 prostate; 0.54 µM with SW-620 colon. For the same compound, the TGI with A498 renal was determined as 1.01 µM; in the assay with COLO 205 colon it was 0.723 µM; in the assay with HT29 colon it was 0.724 µM; in the assay on HOP-92 NSCLC it was 0.446 µM.
With `CCCCCCCCCCCCCCCCNc1ccn(C2CC(OP(=O)(O)OCC3OC(n4cc(CC)c(=O)[nH]c4=O)CC3O)C(CO)O2)c(=O)n1` (stereo not given), the TGI in the assay with HS 578T breast was 67.1 µM; with UO-31 renal, 53 µM; with SF-539 CNS it was 34.4 µM; in the assay with EKVX NSCLC, more than 100 µM; in the assay with PC-3 prostate it was 37.1 µM; with SW-620 colon it was 65.4 µM. Further, the TGI in the assay with A498 renal is more than 100 µM; in the assay with COLO 205 colon, 92.4 µM; in the assay with HT29 colon, 46.1 µM; in the assay with HOP-92 NSCLC, more than 100 µM.
Take `COC(=O)C1[C@H](C(=O)OC)C1(Br)CBr` (stereo not given in full): the TGI in the assay with HS 578T breast, in the assay on UO-31 renal, in the assay with SF-539 CNS, in the assay with EKVX NSCLC, in the assay with PC-3 prostate and with SW-620 colon was more than 100 µM each time. Further, the TGI with A498 renal, in the assay on COLO 205 colon, with HT29 colon and in the assay on HOP-92 NSCLC was more than 100 µM in each case.
For the compound `O=C(NCc1cccnc1)C(=O)NCc1cccnc1`, the TGI in the assay with HS 578T breast, in the assay with UO-31 renal, with SF-539 CNS, with EKVX NSCLC, in the assay on PC-3 prostate and in the assay with SW-620 colon was more than 100 µM in each case. Further, the TGI with A498 renal, in the assay with COLO 205 colon, in the assay with HT29 colon and in the assay on HOP-92 NSCLC was more than 100 µM in each case.
Turning to `Nc1ccc(-c2nc3ccccc3s2)cc1`, the TGI is more than 84 µM in the assay with HS 578T breast; 28.9 µM in the assay with UO-31 renal; 45.1 µM in the assay on SF-539 CNS; 87.4 µM in the assay on EKVX NSCLC; 29.2 µM with PC-3 prostate; 41.1 µM in the assay with SW-620 colon. Also, the TGI came out at 65 µM in the assay on A498 renal, 45.2 µM with COLO 205 colon, 40.1 µM in the assay on HT29 colon and 31.9 µM with HOP-92 NSCLC.
`C/C(=C\CNc1nc(Cl)nc2nc[nH]c12)CO`: the TGI with HS 578T breast, with UO-31 renal, in the assay with SF-539 CNS, with EKVX NSCLC, in the assay with PC-3 prostate and in the assay with SW-620 colon was more than 100 µM throughout. Also, the TGI in the assay on A498 renal, in the assay with COLO 205 colon, in the assay with HT29 colon and in the assay on HOP-92 NSCLC was more than 100 µM in each case.
